Test results taken from paper PMC6566782, “Prodrugs for Skin Delivery of Menahydroquinone-4, an Active Form of Vitamin K2(20), Could Overcome the Photoinstability and Phototoxicity of Vitamin K2(20)” (International Journal of Molecular Sciences, 2019).
Where a name gives a salt, the structure may show the parent alone. Read-outs that look alike come from different tables or passages of the source.

Assays:
cultured epidermis = test system: cultured epidermis; set-up: method as in doi:10.2772/23121; conditions: UVA irradiation ref 13; cited from earlier work
[1] = Photostability in ethanol under artificial sunlight (12,000 lx), LC-MS/MS; format: physicochemical; conditions: for main degradation product: sunlight irradiation (MKH-SUC also under shading); for photostability relative to MK-4: ethanol; for half-life at 1 µM: ethanol solution in quartz cells, read-out: half-life (t1/2) of degradation (converted)
Procedure: The relative irradiance of artificial sunlight at wavelengths of 300 to 800 nm is almost equal to that of natural sunlight, according to the manufacturer. […] MKH-SUC concentration decreased according to an apparent first order rate both with and without shading, although the rate of decrease was accelerated without shading. MKH-DMG and MKH-SUC were more photostable than MK-4 by ca. 50- and 3-fold, respectively.
(§1) Solutions of MK-4 and MKH derivatives in ethanol (1 µM) were irradiated with artificial sunlight (SOLAX 100 W XC-100 B, Seric Ltd., Tokyo, Japan) at 12,000 lx in quartz cells. Illuminance was measured using a digital luminometer (LX-1108, Mother Tool). Irradiation samples (1 µM in ethanol) were irradiated with artificial sunlight at 12,000 lx, and with monochromatic light (279, 341, 373, 404, and 435 nm) using a multi-wavelength irradiation spectrometer (MM 3, Bunkoukeiki Co., Ltd., Tokyo, Japan). Irradiation intensity was measured using an irradiation energy measurement power meter (MM 3, Bunkoukeiki Co., Ltd.).
(§2) LC-MS/MS was performed using an LCMS-8050 Liquid Chromatograph Mass Spectrometer (Shimadzu, Kyoto, Japan) and Shimadzu HPLC System (system controller (CBM-20A), pump (LD-20AD), degasser (DGU-20As), UV detector (SPD-20A), and auto injector (SIL-20AC HT)). Separations were performed on a CAPCELL PAK C18 UG120 (3 μm, 2.0 mm × 100 mm, Shiseido Co., Ltd., Tokyo, Japan) using a mobile phase of 10 mmol/L ammonium acetate and 0.1% acetic acid in methanol and water (97:3) at a flow rate of 0.4 mL/min. Column temperature was maintained at 40 °C. The mass spectrometer was equipped with an electrospray ionization and was run in positive ion mode. Identification and quantitation were based on MS/MS-multiple reaction monitoring mode using transition ions as follows: m/z 445 → 187 for the [M+H]^+ MK-4 adduct, m/z 445 → 187 for the [M + H]^+ chromenol adduct, 619 → 58 for the [M + H]^+ MKH-DMG adduct, m/z 532 → 58 for the [M + H]^+ MKH-mono-DMG adduct, m/z 664 → 187 for the [M + H]^+ MKH-SUC adduct, m/z 564 → 187 for the [M + H]^+ MKH-mono-SUC adduct, and m/z 461 → 81 for the [M + H]^+ MKO adduct.

[2] = Photostability in ethanol under monochromatic light of different wavelengths, LC-MS/MS; format: physicochemical; set-up: key: -: No decomposition; conditions: 1 µM in ethanol, 25 °C
Procedure: To evaluate the effect of irradiation wavelength on photostability of MK-4 and MKH-ester derivatives, 1 μM solutions of MK-4, MKH-DMG, and MKH-SUC in ethanol were irradiated with a xenon light source monochromatic light at 279, 341, 373, 404, or 435 nm, and the concentration of each compound was measured by LC-MS/MS. The log of concentration of each compound was plotted against irradiation energy (Figure 3), and the rates and half-life energies of degradation were obtained from slopes (Table 2). […] Hydrolytic degradations of MKH-DMG and MKH-SUC to their corresponding monoesters were accelerated only at the short wavelength of 279 nm (Figure 3B,C).
as §1, §2

[3] = Singlet oxygen generation assay (p-nitrosodimethylaniline-based ROS assay) after UVA irradiation; format: physicochemical; conditions: phosphate-buffered aqueous solution pH 7.4, UVA irradiation 0–15 J/cm^2
Procedure: It has been reported that singlet oxygen promotes the peroxidation of skin surface lipids, resulting in the induction of skin inflammation. Thus, we measured the irradiation intensity-dependent generation of singlet oxygen by MK-4, MKH-DMG, and MKH-SUC in phosphate-buffered aqueous solution after UVA irradiation using a p-nitrosodimethylaniline-based ROS assay (Figure 4).
MK-4 and MKH derivatives were dissolved in a phosphate buffer (NaPB, pH 7.4) containing 0.2% polyoxyethylene hydrogenated castor oil 40 (HCO 40, obtained as a gift sample from Nikko Chemicals Co., Ltd., Osaka, Japan), 2% dimethyl sulfoxide, and 0.1% glycerol. The solutions were treated according to the singlet oxygen assay method (The Japanese Center for the Validation of Alternative Methods, JaCVAM) and irradiated with UVA light from a CL-1000L UV Crosslinker (UVP, Upland, CA, USA). Absorbance was measured using an Infinite M200 PRO (Tecan Life Sciences, Zurich, Switzerland).

HaCaT cells [4] = assay: Intracellular ROS generation assay (DCFH-DA) with or without UVA irradiation; format: cell-based, Human; conditions: UVA irradiation 15 J/cm^2
Procedure: (§3) The in vitro phototoxicity of MK-4 and MKH derivatives were assessed by measuring the intracellular ROS generation and the viability of human epidermal keratinocyte cells (HaCaT) after UVA irradiation in the presence or absence of MK-4 and MKH derivatives. Intracellular ROS generation was determined using the cell permeable probe 2′,7′-dichlorofluorescein diacetate (DCFH-DA), which rapidly reacts with hydroxyl radicals. Cells without drug treatment or UVA irradiation were used as the control. ROS generation and cell viability are shown in Figure 5 and Figure 6, respectively.
Intracellular ROS generation was measured using 2′,7′-dichlorofluorescein diacetate (DCFH-DA; Invitrogen, Carlsbad, CA, USA) as a fluorescent probe. HaCaT cells were seeded at 1.0 × 10^5 cells/well in 96-well plates and cultured overnight. Thereafter, cells were washed with PBS and incubated with 10 µM DCFH-DA solution in PBS at 37 °C for 1 h. Following incubation, test compound solutions in PBS described above were added to each well and re-incubated for 1 h. After incubation, cells were irradiated with UVA at an irradiation intensity of 15 J/cm^2 and the fluorescence intensity (Ex: 485 nm, Em: 530 nm) was measured using an Infinite M200 PRO (Tecan Life Sciences).

HaCaT cells [5] = assay: Cell viability assay (CellTiter-Glo) 24 h after UVA irradiation; format: cell-based, Human; conditions: 24 h after UVA irradiation 15 J/cm^2
Procedure: as §3
HaCaT cells were seeded at 1.0 × 10^5 cells/well in 96-well plates and cultured overnight. Thereafter, cells were washed with PBS, and test compound solutions in PBS described above were added to each well and re-incubated for 1 h. After incubation, cells were irradiated with UVA at an irradiation intensity of 15 J/cm^2. After irradiation, cells were washed twice with PBS and replaced in culture medium. After 24 h incubation, cell viability was measured using a CellTiter-Glo® Luminescent Cell Viability Assay (Promega, Madison, WI, USA).

[6] = test system: hepatocellular carcinoma (HCC) cells; set-up: method as in PMID 30013007; conditions: compared with MK-4 ref 17; cited from earlier work
[7] = set-up: method as in PMID 7724483; conditions: physiological pH 7.4 ref 14; cited from earlier work
[8] = 1 µM in ethanol, artificial sunlight 12,000 lx, 25 °C
[9] = 1 µM in ethanol, shading (covered with aluminum foil during irradiation), 25 °C
[10] = artificial sunlight 12,000 lx, 25 °C

Row | SMILES | apparent first order rate constant (k) of degradation [1, 8] | main degradation product ([1]; 1 µM in ethanol) | photostability relative to MK-4 [1, 10] | half-life at 1 µM [1, 8] | rate constant (k) of degradation ([2]; monochromatic light 279 nm) | rate constant (k) of degradation ([2]; monochromatic light 341 nm) | rate constant (k) of degradation ([2]; monochromatic light 373 nm) | rate constant (k) of degradation ([2]; monochromatic light 404 nm) | rate constant (k) of degradation ([2]; monochromatic light 435 nm) | singlet oxygen generation [3] | intracellular ROS level (HaCaT cells [4]) | cell viability (HaCaT cells [5]) | delivery of MKH into HCC cells [6] | further results
1 | CC1=C(C/C=C(\C)CCC[C@H](C)CCC[C@H](C)CCCC(C)C)C(=O)c2ccccc2C1=O [vitamin K1] |  |  |  |  |  |  |  |  |  |  |  |  |  | phototoxicity against cultured epidermis (cultured epidermis): exhibits phototoxicity
2 | CC(C)=CCC/C(C)=C/CC/C(C)=C/CC/C(C)=C/Cc1c(C)c(OC(=O)CCC(=O)O)c2ccccc2c1OC(=O)CCC(=O)O [MKH-SUC, menahydroquinone-4 1,4-bis-hemisuccinate] | 2.796 h⁻¹ | MKH-mono-SUC | ~3 fold | 14.9 min | 0.110 J^−1·cm^2 | 0.069 J^−1·cm^2 | 0.059 J^−1·cm^2 | 0.061 J^−1·cm^2 | 0.068 J^−1·cm^2 | little generation of singlet oxygen | no significant changes | unaffected | more effectively than MK-4 | apparent first order rate constant (k) of degradation [1, 9]: 0.883 h⁻¹; half-life at 1 µM [1, 9]: 47.1 min
3 | COc1cc(O)c(C(=O)c2ccccc2)cc1S(=O)(=O)O [sulisobenzone, reference compound] |  |  |  |  |  |  |  |  |  | little generation of singlet oxygen |  |  |  | 
4 | CC(C)=CCC/C(C)=C/CC/C(C)=C/CC/C(C)=C/Cc1c(C)c(OC(=O)CN(C)C)c2ccccc2c1OC(=O)CN(C)C [MKH-DMG, menahydroquinone-4 1,4-bis-N,N-dimethylglycinate hydrochloride] | 0.167 h⁻¹ | MKH-mono-DMG | ca. 50 fold | 249 min | 0.146 J^−1·cm^2 | - ^b | - ^b | - ^b | - ^b | little generation of singlet oxygen | no significant changes | unaffected | more effectively than MK-4 | concentration change under shading ([1]; 1 µM in ethanol, shading, 25 °C): unchanged under shading; half-life energy (E1/2) of degradation ([2]; monochromatic light 341 nm): - ^b; half-life energy (E1/2) of degradation ([2]; monochromatic light 373 nm): - ^b; half-life energy (E1/2) of degradation ([2]; monochromatic light 404 nm): - ^b; half-life energy (E1/2) of degradation ([2]; monochromatic light 435 nm): - ^b; partition coefficient (log P) [7]: 3.66
